Earlier results in article PMC6399674 (The Journal of Organic Chemistry, 2019).
Where two headings read alike, the source gives them in different places.

Biological target: T1, lectin LecA (Pseudomonas aeruginosa, UniProt Q05097)
T1 sequence (Q05097 1-122): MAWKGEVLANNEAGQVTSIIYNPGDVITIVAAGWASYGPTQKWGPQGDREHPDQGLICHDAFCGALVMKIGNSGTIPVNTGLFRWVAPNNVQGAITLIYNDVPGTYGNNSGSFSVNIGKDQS
Details: ITC

Structure (SMILES) | n (stoichiometry) | ΔG | ΔH | –TΔS [kcal/mol] | Kd (as stated in text) [µM] | Kd [µM]
O=C[C@H](O)[C@@H](O)[C@@H](O)[C@H](O)CO [D-dalactose, galactose] | 1.1 | –5.5 kcal/mol | –7.9 kcal/mol | 2.3 | 70 to 90 | –
OC[C@H]1O[C@@H](Oc2ccccc2)[C@H](O)[C@@H](O)[C@H]1O [Gal-β-OPh] | 0.9 | –6.9 kcal/mol | –11.2 kcal/mol | 4.8 | ~9 | 8.8
